Experimental data: patent publication US20080161419A1, “Prophylactic Antimigraine Agents” (priority 2004, published 2008)
Each block holds one compound with its values, some of them ahead of it.

Experiments:
5-HT2B receptor = conditions: against 5-HT1A, 5-HT1B, 5-HT2A, 5-HT2C, 5-HT3, 5-HT6, 5-HT7, α1, M1 and D2 receptors; cited from earlier work
[1] = tested on: migraine model of guinea pig; test: Preventive effect in guinea pig migraine model (leaked protein from dural blood vessel caused by 5-HT); assay type: in vivo; conditions: for amount of leaked protein (fluorescence intensity per mg dura): 3 mg/kg, intraperitoneal administration, 5-HT i.v.; for leakage of the protein: 10 mg/kg or 30 mg/kg of oral administration
Experimental: In this test system, migraine preventive effect was evaluated by measuring this leaked protein in the presence of a compound to be tested, and this was carried out by partially modifying the method described in Rachel A. Spokes and Vicki C. Middlefell, European Journal of Pharmacology (1995) 281, 75-79.
Hartley male guinea pig (250-350 g) was anesthetized by peritoneal administration (i.p.) of urethane (1.5 g/kg). By applying simple cannulation to a saphena, 50 mg/kg of a fluorescent protein (FITC-BSA) was intravenously administered (i.v.) and 5 minutes thereafter, physiological saline or […] of 5-HT was intravenously administered. By carrying out perfusion with physiological saline 15 minutes thereafter, blood was washed out. […] By detaching the skull, dura mater was took out and incubated at 37° C. for 16 hours in an Eppendorf tube in the presence of physiological saline of pH 11. Centrifugation was carried out, and the supernatant was dispensed into a plate. Fluorescence intensity was measured using a fluorescence plate reader (excitation wavelength 485 nm, […] 530 nm). By measuring dura mater weight, fluorescence intensity per mg dural protein was calculated.
Values of the fluorescence intensity measured at the time of the administration of each compound and at the time of no administration are shown in FIG. 1 to FIG. 4. […] The control indicates fluorescence intensity at the time of no addition of 5-HT, namely the reference value.

human 5-HT7 receptor = biological target: T1, human 5-HT7 receptor (Homo sapiens, UniProt P34969); test: Binding test of 5-HT7 receptor; conditions: [3H]5-HT, human 5-HT7 receptor expressing CHO cell membrane
T1 construct: expressed in transfected cells; host or cells: CHO
T1 sequence (P34969 whole entry): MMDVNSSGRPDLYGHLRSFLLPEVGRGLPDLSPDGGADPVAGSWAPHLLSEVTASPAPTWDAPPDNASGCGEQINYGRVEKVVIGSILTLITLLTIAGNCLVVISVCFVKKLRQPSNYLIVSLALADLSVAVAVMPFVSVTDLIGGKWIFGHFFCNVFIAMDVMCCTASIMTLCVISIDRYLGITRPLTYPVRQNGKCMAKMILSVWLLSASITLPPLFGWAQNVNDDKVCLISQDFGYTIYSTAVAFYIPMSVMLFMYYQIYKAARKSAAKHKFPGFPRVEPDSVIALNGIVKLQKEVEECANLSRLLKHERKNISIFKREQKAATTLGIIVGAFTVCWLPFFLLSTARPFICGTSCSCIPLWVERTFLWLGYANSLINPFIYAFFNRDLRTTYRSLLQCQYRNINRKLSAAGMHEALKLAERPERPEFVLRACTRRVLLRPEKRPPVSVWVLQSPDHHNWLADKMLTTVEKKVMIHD

5-HT6 receptor = 5-HT6 receptor (Homo sapiens, UniProt P50406); test: Affinity for other receptors: 5-HT6; assay type: binding
Chain of 5-HT6 receptor (P50406 whole entry): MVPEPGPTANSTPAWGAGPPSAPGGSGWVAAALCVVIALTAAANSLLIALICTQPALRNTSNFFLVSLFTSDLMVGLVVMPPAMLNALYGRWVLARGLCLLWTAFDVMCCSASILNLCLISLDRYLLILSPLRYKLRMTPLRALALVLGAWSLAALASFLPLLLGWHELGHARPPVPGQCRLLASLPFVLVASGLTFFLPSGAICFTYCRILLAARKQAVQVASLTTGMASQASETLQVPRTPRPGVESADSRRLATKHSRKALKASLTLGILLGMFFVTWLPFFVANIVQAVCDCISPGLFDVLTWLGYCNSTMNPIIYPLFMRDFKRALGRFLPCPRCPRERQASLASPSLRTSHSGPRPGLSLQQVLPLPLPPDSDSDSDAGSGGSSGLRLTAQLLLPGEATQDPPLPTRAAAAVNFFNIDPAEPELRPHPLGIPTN
From the text: (§1) Affinity of the compound of Preparation 3 for 5-HT1A, 5-HT1B, 5-HT2A, 5-HT2C, 5-HT3, 5-HT4, 5-HT6, α1, M1 and D2 receptors was verified using conventionally known techniques (Journal of Neurochemistry (1986) 47, 529-540; Molecular Pharmacology (1982) 21, 301-314; European Journal of Pharmacology (1985) 106, 539-546; Journal of Pharmacology Experimental Therapy (1992) 263, 1127-1132; British Journal of Pharmacology (1993) 109, 618-624; Molecular Pharmacology (1993) 43, 320-327; Molecular Pharmacology (1989) 35, 324-330; Cellular Molecular Neurobiology (1988) 8, 181-191; European Journal of Pharmacology (1988) 173, 177-182).

D2 receptor = D2 receptor (Homo sapiens, UniProt P14416); test: Affinity for other receptors: D2; assay type: binding
Chain of D2 receptor (P14416 whole entry): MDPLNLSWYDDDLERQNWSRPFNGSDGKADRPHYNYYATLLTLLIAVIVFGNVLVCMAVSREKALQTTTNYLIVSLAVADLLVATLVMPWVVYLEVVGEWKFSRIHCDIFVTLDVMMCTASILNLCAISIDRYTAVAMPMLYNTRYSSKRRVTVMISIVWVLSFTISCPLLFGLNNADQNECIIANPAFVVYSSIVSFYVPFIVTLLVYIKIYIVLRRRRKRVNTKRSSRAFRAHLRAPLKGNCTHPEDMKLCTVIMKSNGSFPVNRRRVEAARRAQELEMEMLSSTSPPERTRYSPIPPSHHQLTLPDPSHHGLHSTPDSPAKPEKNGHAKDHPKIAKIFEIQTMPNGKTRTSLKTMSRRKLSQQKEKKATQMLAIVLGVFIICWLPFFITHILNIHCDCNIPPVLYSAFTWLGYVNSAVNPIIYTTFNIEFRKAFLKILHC
From the text: as §1

5-HT2A receptor = 5-HT2A receptor (Homo sapiens, UniProt P28223); test: Affinity for other receptors: 5-HT2A; assay type: binding
Chain of 5-HT2A receptor (P28223 whole entry): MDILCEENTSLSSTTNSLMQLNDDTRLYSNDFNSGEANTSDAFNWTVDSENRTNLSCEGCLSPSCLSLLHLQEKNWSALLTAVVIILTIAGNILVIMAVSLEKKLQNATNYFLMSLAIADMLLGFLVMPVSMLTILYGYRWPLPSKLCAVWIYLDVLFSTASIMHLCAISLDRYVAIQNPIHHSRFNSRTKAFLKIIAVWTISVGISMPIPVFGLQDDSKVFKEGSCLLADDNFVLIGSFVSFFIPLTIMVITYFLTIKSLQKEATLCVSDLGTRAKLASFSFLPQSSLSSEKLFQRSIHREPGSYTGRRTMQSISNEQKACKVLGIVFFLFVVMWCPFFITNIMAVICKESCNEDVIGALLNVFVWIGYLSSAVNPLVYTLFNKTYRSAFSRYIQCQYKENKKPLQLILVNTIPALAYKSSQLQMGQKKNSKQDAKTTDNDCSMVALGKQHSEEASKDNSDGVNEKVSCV
From the text: as §1

5-HT4 receptor = 5-HT4 receptor (Homo sapiens, UniProt Q13639); test: Affinity for other receptors: 5-HT4; assay type: binding
Chain of 5-HT4 receptor (Q13639 whole entry): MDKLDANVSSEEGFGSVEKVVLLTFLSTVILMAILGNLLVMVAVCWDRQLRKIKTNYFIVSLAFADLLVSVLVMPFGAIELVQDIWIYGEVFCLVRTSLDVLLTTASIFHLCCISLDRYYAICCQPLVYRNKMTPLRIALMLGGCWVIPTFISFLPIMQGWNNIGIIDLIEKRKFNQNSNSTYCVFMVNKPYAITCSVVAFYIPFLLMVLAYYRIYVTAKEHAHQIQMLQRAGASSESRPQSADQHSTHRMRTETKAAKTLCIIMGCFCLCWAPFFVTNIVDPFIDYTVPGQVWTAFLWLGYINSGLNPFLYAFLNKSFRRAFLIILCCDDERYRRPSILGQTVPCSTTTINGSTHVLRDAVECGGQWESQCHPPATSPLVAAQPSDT
From the text: as §1

M1 receptor = biological target: T2, M1 receptor (Homo sapiens, UniProt P11229); test: Affinity for other receptors: M1; assay type: binding
T2 sequence (P11229 1-460): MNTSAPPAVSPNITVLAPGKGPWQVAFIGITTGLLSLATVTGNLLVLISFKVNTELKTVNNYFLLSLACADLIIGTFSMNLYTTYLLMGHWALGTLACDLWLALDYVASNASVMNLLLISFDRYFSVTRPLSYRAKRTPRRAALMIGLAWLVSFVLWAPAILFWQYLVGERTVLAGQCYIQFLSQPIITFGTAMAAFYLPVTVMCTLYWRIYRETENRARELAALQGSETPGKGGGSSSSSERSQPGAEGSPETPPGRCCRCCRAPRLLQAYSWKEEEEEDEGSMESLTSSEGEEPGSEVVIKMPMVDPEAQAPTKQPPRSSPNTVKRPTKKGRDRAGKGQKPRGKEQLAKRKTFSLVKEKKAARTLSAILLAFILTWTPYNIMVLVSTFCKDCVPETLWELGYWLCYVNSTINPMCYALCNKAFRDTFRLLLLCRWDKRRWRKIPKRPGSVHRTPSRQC
From the text: as §1

5-HT1B receptor = 5-HT1B receptor (Homo sapiens, UniProt P28222); test: Affinity for other receptors: 5-HT1B; assay type: binding
Chain of 5-HT1B receptor (P28222 whole entry): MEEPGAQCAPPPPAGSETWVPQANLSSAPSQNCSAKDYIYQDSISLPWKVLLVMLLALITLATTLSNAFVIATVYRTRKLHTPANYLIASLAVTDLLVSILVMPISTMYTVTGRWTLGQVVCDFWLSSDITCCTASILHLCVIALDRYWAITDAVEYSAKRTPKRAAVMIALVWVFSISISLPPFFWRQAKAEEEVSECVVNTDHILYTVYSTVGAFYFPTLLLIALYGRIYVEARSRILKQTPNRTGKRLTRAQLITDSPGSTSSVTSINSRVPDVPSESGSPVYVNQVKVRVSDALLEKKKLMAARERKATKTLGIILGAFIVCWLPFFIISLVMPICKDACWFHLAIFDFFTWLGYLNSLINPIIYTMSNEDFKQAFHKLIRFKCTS
From the text: as §1

5-HT2C receptor = biological target: T3, 5-HT2C receptor (Homo sapiens, UniProt P28335); test: Affinity for other receptors: 5-HT2C; assay type: binding
T3 sequence (P28335 33-458): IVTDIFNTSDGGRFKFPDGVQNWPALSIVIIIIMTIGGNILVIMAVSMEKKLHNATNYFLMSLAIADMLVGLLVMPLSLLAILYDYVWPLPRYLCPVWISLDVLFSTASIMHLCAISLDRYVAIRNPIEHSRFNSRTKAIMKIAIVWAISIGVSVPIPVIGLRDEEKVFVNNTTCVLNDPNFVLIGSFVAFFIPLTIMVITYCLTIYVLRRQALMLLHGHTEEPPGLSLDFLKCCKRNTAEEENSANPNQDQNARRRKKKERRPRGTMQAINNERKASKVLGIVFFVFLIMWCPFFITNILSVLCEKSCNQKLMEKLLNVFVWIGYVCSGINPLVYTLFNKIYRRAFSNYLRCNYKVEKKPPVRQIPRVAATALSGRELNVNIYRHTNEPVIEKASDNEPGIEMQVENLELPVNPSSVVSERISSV
From the text: as §1

human 5-HT2B receptor = biological target: T4, human 5-HT2B receptor (Homo sapiens, UniProt P41595); test: Binding test of 5-HT2B receptor; conditions: [3H]Mesulergine, human 5-HT2B receptor expressing HEK293-EBNA cell membrane
T4 construct: expressed in transfected cells; host or cells: HEK293-EBNA
T4 sequence (P41595 whole entry): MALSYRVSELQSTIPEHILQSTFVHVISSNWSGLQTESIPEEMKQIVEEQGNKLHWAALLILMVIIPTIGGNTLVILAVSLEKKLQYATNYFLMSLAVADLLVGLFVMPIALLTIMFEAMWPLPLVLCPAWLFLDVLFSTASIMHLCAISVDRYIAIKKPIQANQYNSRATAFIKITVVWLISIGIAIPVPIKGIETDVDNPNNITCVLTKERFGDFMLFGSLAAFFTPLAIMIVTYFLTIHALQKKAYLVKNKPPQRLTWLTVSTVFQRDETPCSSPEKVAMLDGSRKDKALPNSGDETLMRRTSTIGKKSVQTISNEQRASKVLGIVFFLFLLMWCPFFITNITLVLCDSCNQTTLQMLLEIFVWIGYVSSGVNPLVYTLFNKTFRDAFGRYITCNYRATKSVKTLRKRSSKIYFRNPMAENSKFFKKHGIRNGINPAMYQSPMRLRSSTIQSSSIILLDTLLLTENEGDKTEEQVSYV

α1 receptor = test: Affinity for other receptors: α1; assay type: binding
From the text: as §1

5-HT3 receptor = biological target: T5, 5-HT3 receptor (Homo sapiens, UniProt P46098); test: Affinity for other receptors: 5-HT3; assay type: binding
T5 sequence (P46098 24-478): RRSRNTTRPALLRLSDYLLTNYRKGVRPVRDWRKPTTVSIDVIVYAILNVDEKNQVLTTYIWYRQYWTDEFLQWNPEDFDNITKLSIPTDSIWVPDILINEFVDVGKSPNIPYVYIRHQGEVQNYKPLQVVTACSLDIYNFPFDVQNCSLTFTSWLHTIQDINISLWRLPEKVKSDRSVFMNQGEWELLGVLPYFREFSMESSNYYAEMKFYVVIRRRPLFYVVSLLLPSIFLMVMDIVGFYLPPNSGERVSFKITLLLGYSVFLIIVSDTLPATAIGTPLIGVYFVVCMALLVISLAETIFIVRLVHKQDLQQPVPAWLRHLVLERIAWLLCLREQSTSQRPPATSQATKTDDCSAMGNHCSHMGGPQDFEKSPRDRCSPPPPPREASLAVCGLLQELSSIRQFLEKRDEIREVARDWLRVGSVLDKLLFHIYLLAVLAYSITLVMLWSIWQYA
From the text: as §1

5-HT1A receptor = biological target: T6, 5-HT1A receptor (Homo sapiens, UniProt P08908); test: Affinity for other receptors: 5-HT1A; assay type: binding
T6 sequence (P08908 1-422): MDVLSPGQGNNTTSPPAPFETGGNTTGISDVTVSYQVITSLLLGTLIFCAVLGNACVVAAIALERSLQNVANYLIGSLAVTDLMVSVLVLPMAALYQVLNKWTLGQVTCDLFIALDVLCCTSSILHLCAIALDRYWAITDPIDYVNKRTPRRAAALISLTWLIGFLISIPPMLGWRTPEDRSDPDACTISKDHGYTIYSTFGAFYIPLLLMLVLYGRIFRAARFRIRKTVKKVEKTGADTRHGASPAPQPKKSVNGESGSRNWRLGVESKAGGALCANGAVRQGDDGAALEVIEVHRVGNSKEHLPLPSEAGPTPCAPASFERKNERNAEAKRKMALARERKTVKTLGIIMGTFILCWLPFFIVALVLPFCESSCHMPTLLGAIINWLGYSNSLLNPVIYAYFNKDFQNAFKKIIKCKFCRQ
From the text: as §1

SMILES: CC(C)c1cc(-c2ccc(F)c3ccccc23)nc(N)n1 [RS-127445, 2-amino-4-(4-fluoronaphth-1-yl)-6-isopropylpyrimidine, reference compound]
5-HT2B receptor selectivity (5-HT2B receptor): 1000 times | amount of leaked protein (fluorescence intensity per mg dura) [1]: showed an effect to reduce amount of the leaked protein | amount of leaked protein versus reference value ([1]; dose increased from 3 mg/kg to 10 mg/kg, intraperitoneal): did Dot reduced to the reference value | minimum amount showing maximum drug effect in this model ([1]; intraperitoneal): 3 mg/kg

SMILES: Cl.NC(N)=NC(=O)c1ccc2c(c1)C1(CCCO1)c1ccccc1-2 (single isomer, unassigned) [Preparation 60a]
leakage of the protein [1]: almost completely suppressed leakage of the protein

SMILES: COC1(C)c2cc(C(=O)N=C(N)N)ccc2-c2c(F)cccc21.Cl (racemic) [Preparation 87]
leakage of the protein [1]: almost completely suppressed leakage of the protein

SMILES: Cl.NC(N)=NC(=O)c1ccc2c(c1)C1(CCCO1)c1ccccc1-2 (racemic) [Preparation 60]
leakage of the protein [1]: almost completely suppressed leakage of the protein

SMILES: CC1(O)c2cc(C(=O)N=C(N)N)ccc2-c2c(F)cccc21.Cl (single isomer, unassigned) [Preparation 78b]
leakage of the protein [1]: almost completely suppressed leakage of the protein

SMILES: CCC1(OC)c2ccccc2-c2ccc(C(=O)N=C(N)N)cc21.Cl (racemic) [Preparation 72]
leakage of the protein [1]: almost completely suppressed leakage of the protein

Ki (human 5-HT7 receptor): 0.4 to 310 nM
SMILES: NC(N)=NC(=O)c1ccc2c(c1)C(=NO)c1c(CO)cccc1-2 [Preparation 7, (9EZ)-N-(diaminomethylene)-9-hydroxyimino-8-hydroxymethyl-9H-fluorene-2-carboxamide]

SMILES: CC1CCN(CC[C@H]2CCCN2S(=O)(=O)c2cccc(O)c2)CC1 [SB-269970, (R)-3-(2-(2-(4-methylpiperidin-1-yl)ethyl)pyrrolidine-1-sulfonyl)phenol, reference compound]
amount of leaked protein versus reference value ([1]; dose increased from 3 mg/kg to 30 mg/kg, intraperitoneal): did not reduced the amount of leaked protein to the reference value | amount of leaked protein ([1]; from 10 mg/kg, intraperitoneal): showed the effect | minimum amount showing maximum drug effect in this model ([1]; intraperitoneal): 10 mg/kg

SMILES: Cl.NC(N)=NC(=O)c1ccc2c(c1)C1(CCCO1)c1ccccc1-2 (single isomer, unassigned) [Preparation 60b]
leakage of the protein [1]: almost completely suppressed leakage of the protein

Ki (human 5-HT7 receptor): 0.4 to 310 nM
SMILES: NC(N)=NC(=O)c1ccc2c(c1)C(Cl)c1ccccc1-2 (centres unmarked) [Preparation 4, 9-chloro-N-(diaminomethylene)-9H-fluorene-2-carboxamide]

SMILES: Cl.NC(N)=NC(=O)c1ccc2c(c1)C(O)c1ccccc1-2 (centres unmarked) [Preparation 3, N-(diaminomethylene)-9-hydroxy-9H-fluorene-2-carboxamide hydrochloride]
IC50 (5-HT6 receptor): ≥ 1000 nM | IC50 (D2 receptor): ≥ 1000 nM | IC50 (5-HT2A receptor): ≥ 1000 nM | IC50 (5-HT4 receptor): ≥ 1000 nM | IC50 (M1 receptor): ≥ 1000 nM | IC50 (5-HT1B receptor): ≥ 1000 nM | IC50 (5-HT2C receptor): ≥ 1000 nM | Ki (human 5-HT2B receptor): 1.8 nM | amount of leaked protein (fluorescence intensity per mg dura) [1]: almost completely suppressed the amount of leaked protein | IC50 (α1 receptor): ≥ 1000 nM | IC50 (5-HT3 receptor): ≥ 1000 nM | IC50 (5-HT1A receptor): ≥ 1000 nM | Ki (human 5-HT7 receptor): 17.6 nM

SMILES: COC1(C)c2ccccc2-c2ccc(C(=O)N=C(N)N)cc21.Cl (racemic) [Preparation 71]
leakage of the protein [1]: almost completely suppressed leakage of the protein
